According to article PMC5075052, “Modulation of the Substitution Pattern of 5-Aryl-2-Aminoimidazoles Allows Fine-Tuning of Their Antibiofilm Activity Spectrum and Toxicity” (Antimicrobial Agents and Chemotherapy, 2016):
Like-named read-outs stand apart in the source and are kept apart here.

Key:
C. albicans SC5314 = experiment: Inhibition of C. albicans biofilms, CellTiter-Blue quantification; format: cell-based, Candida albicans; details: Candida albicans; C. albicans SC5314, 37°C, CTB method; read-out: BIC50 (μM) for C. albicans SC5314 (37°C)
Description: The potential of the compounds to prevent C. albicans SC5314 biofilm formation was assessed using the CellTiter-Blue (CTB) quantification method ([75]). […]. Twofold serial dilutions of the compounds (dissolved in 100% DMSO or ethanol) in 100 μl RPMI 1640 medium per well were prepared in a round-bottom polystyrene 96-well microtiter plate (TPP; Trasadingen, Switzerland) in duplicate or triplicate with a maximum concentration of 1,600 μM and a minimum concentration of 0.8 μM. One hundred microliters of the cell suspension was added to each well of the microtiter plate, resulting in a total volume of 200 μl medium per well (final concentration range of compounds, 800 μM [2% DMSO or ethanol] to 0.4 μM [0.001% DMSO or ethanol]). After 16 h of static incubation at 37°C, the biofilms were washed and quantified by the CTB method as described previously ([73]).

osteoblasts (OB) = experiment: Mammalian cell viability assay, trypan blue staining; format: cell-based; details: 12.5 μM, 6 days of exposure
Description: The viability of two human primary cell types, namely, osteoblasts (OB) and bone marrow-derived mesenchymal stem cells (MSC), was tested according to the ISO 10993-5 standard, as previously described ([76]). Briefly, cells were seeded in 96-well tissue culture test plates (TPP; Trasadingen, Switzerland) at 5 × 10^3 cells/cm^2 in cell culture medium (advanced Dulbecco modified Eagle's medium [DMEM]) supplemented with 10% serum, 1× GlutaMAX, and 0.05 mg/ml gentamicin and were allowed to attach overnight. On the next day, the cells were exposed to (i) cell culture medium and medium with the corresponding control (0.5% ethanol or DMSO; negative controls), (ii) medium with 0.05% phenol (cytotoxic control), and (iii) medium with compounds (12.5 μM) and incubated for 2 h, 48 h, and 6 days (8 repeats for each condition). At each time point, the numbers of viable and dead cells were determined directly by trypan blue staining and indirectly by measuring metabolic activity with 3-(4,5-dimethylthiazol-2-yl)-2,5-diphenyltetrazolium bromide (MTT) staining.
The medium was removed from the wells, 1/3 trypan blue in DMEM was added to the cells, and the cells were incubated for 3 min, after which the trypan blue was removed and DMEM was added to the wells. In each of four wells, two microscopy fields were counted for viable (transparent) and dead (blue) cells.

[1] = tested on: S. Typhimurium ATCC 14028; experiment: Monospecies bacterial biofilm inhibition, static peg assay; format: cell-based, Salmonella enterica serovar Typhimurium; details: Salmonella enterica, S. Typhimurium ATCC 14028, 25°C
Description: A static peg assay, described previously ([27], [74]), was used for bacterial biofilm formation. The Calgary biofilm device consists of a platform carrying 96 polystyrene pegs (Nunc no. 445497) that fits as a microtiter plate lid, with 1 peg hanging into each microtiter plate well (Nunc no. 269789). Twofold serial dilutions of the compounds (dissolved in 100% dimethyl sulfoxide [DMSO] or ethanol) in 100 μl liquid broth (TSB diluted 1/20) per well were prepared in the microtiter plate in duplicate or triplicate with a maximum concentration of 1,600 μM and a minimum concentration of 0.8 μM. Subsequently, an overnight culture of S. Typhimurium ATCC 14028, P. aeruginosa PA14, E. coli TG1, S. epidermidis, S. aureus SH1000, or S. aureus ATCC 6538 (all grown in LB) was diluted 1:100 into TSB diluted 1/20 (or TSB for S. epidermidis, S. aureus SH1000, and S. aureus ATCC 6538), whereas overnight cultures of S. liquefaciens MG44 and B. cepacia LMG1222T were diluted 1:50 into TSB diluted 1/20. P. gingivalis ATCC 33277 cultures were diluted in TSB diluted 1/20 to have a final concentration of 1 × 10^8 cells/ml. Next, 100 μl was added to each well of the microtiter plate, resulting in a total volume of 200 μl medium per well (final concentration range of compounds, 800 μM [2% DMSO or ethanol] to 0.4 μM [0.001% DMSO or ethanol]). In the next step, the pegged lid was placed on the microtiter plate and the plate was incubated for 24 h or 48 h at 25°C or 37°C without shaking. At 37°C, the plates were placed in a sealed container with wet towels on the bottom to prevent evaporation of the growth medium. Biofilms of P. gingivalis ATCC 33277 were grown anaerobically at 37°C for 72 h. During this incubation period, biofilms were formed on the surface of the pegs. After incubation, the optical density at 600 nm (OD600) for the planktonic cells in the microtiter plate was measured using a Synergy MX multimode reader (BioTek, Winooski, VT). This gives a first indication of the effect of the compounds on planktonic growth. For quantification of biofilm formation, the pegs were washed once in 200 μl PBS. The remaining attached bacteria were stained for 30 min with 200 μl 0.1% (wt/vol) crystal violet in an isopropanol-methanol-PBS solution (1:1:18, vol/vol). Excess stain was rinsed off by placing the pegs in a 96-well plate filled with 200 μl distilled water per well. After air drying of the pegs (30 min), the dye bound to the adherent biofilm was extracted with 30% glacial acetic acid (200 μl per well of a 96-well plate). The optical density at 570 nm (OD570) of each well was measured using a Synergy MX multimode reader (BioTek, Winooski, VT). The concentration of each compound needed to inhibit biofilm formation by 50% (BIC50) and the concentration of each compound needed to inhibit planktonic growth by 50% (IC50) were determined from the concentration gradient by using nonlinear curve fitting (GraphPad Prism software, version 5; GraphPad Software, Inc., La Jolla, CA). In the same assay, the effect on planktonic growth was evaluated. The activity was considered biofilm specific if the BIC50 was at least two times lower than the IC50. Data represent the means from at least 3 technical repeats with the corresponding 95% confidence intervals (provided in the supplemental material).

Compound	IC50 (C. albicans SC5314)	proliferation of OB (trypan blue) (osteoblasts (OB))	IC50 ([1]; read-out: BIC50)	viability of OB (trypan blue) (osteoblasts (OB))	IC50 ([1]; read-out: IC50 (planktonic growth))
CCCCCCCCn1c(-c2ccc(Cl)cc2)cnc1N [Compound 2]	6.2 µM	–	~5.9 µM	–	–
Brc1ccc(-c2cnc(NCCn3cc(C4CC4)nn3)[nH]2)cc1 [Compound 6]	> 400 µM	–	2 µM	–	2.4 µM
Clc1ccc(-c2cnc(NC3CCCC3)[nH]2)cc1 [Compound 5]	64 µM	–	4.4 µM	–	–
CCCCNc1ncc(-c2ccc(Br)cc2)[nH]1 [Compound 4]	66.7 µM	–	7.1 µM	–	–
CC(C)CNc1ncc(-c2ccc(Cl)cc2)[nH]1 [Compound 3]	93.9 µM	–	2 µM	–	–
CCCCCn1c(-c2ccccc2)cnc1N [Compound 1]	145 µM	–	48.4 µM	–	–

Continued, in another order:

IC50 (C. albicans SC5314)	Compound	proliferation of OB (trypan blue) (osteoblasts (OB))	IC50 ([1]; read-out: BIC50)	viability of OB (trypan blue) (osteoblasts (OB))	IC50 ([1]; read-out: IC50 (planktonic growth))
> 100 µM	CCCCCCCCn1c(-c2ccc(Cl)c(Cl)c2)cnc1NCC(C)C [Compound 8d]	increase in proliferation	–	–	–
> 100 µM	CCCCCCCCn1c(-c2ccc(Cl)c(Cl)c2)cnc1NC1CCCC1 [Compound 8h]	increase in proliferation	–	–	–
8.9 µM	CCCCCCCCn1c(-c2ccc(Cl)cc2)cnc1NC1CCCC1 [Compound 8f]	–	–	–	–
> 100 µM	CCCCCCCCn1c(-c2ccc(Br)cc2)cnc1NCC(C)C [Compound 8c]	increase in proliferation	–	very slightly reduced	–
21.1 µM	CCCCCCCCn1c(-c2ccc(Br)cc2)cnc1NC1CCCC1 [Compound 8g]	increase in proliferation	–	–	–
~11.9 µM	CCCCCCCCn1c(-c2ccccc2)cnc1NC1CCCC1 [Compound 8e]	slightly reduced	–	–	–
11 µM	CCCCCCCCn1c(-c2ccc(Cl)cc2)cnc1NCC(C)C [Compound 8b]	–	–	–	–
9.3 µM	CCCCCCCCn1c(-c2ccccc2)cnc1NCC(C)C [Compound 8a]	slightly reduced	–	–	–
